# Tests used:
# male rats [1] = details: 200 and 400 mg/kg/day; cited from earlier work
# [2] = unlike estrogen; cited from earlier work
# male rats [3] = details: cited from earlier work
# male Sprague-Dawley rats = assay: Assay 2: Effect on Prostate Weight; format: in vivo, rat; details: subcutaneous injection daily for 14 days, compared to vehicle
# Protocol: Three-month-old male Sprague-Dawley rats are administered by subcutaneous injection control vehicle (10% ethanol in water), estradiol (30 μg/kg), testosterone (1 mg/kg), or a test compound according to the present invention daily for 14 days (n=6/group). After 14 days the animals are sacrificed, the prostate is removed, and the wet prostate weight is determined. Mean weight is determined and statistical significance (p<0.05) is determined compared to the vehicle-treated group using the Student's t-test.
smiles,measurement,setting,value
"CC/C(=C(\c1ccccc1)c1ccc(OCCN(C)C)cc1)c1ccccc1 [tamoxifen, 1-(4-β-dimethylaminoethoxyphenyl)-1,2-diphenyl-but-1-ene]",weights of the testes and secondary sex organs,male rats [1],reduces the weights of the testes and secondary sex organs
"O=C(c1ccc(OCCN2CCCCC2)cc1)c1c(-c2ccc(O)cc2)sc2cc(O)ccc12 [raloxifene, 6-hydroxy-2-(4-hydroxyphenyl)-3-[4-(2-piperidinoethoxy)benzoyl] benzo[b] thiophene]",uterine stimulatory effect,[2],minimal uterine stimulatory effect
same,effect on ventral prostate,male rats [3],regression of the ventral prostate
"C[C@]12CC[C@H]3[C@@H](CCC4=CC(=O)CC[C@@]43C)[C@@H]1CC[C@@H]2O [Testosterone, testosterone]",effect on wet prostate weight,male Sprague-Dawley rats; testosterone 1 mg/kg,no effect
"C[C@]12CC[C@@H]3c4ccc(O)cc4CC[C@H]3[C@@H]1CC[C@@H]2O [estrogen, estradiol]",effect on wet prostate weight,male Sprague-Dawley rats; estrogen at 30 μg/kg,significantly reduce prostate weight

# Reference: patent US6608203B2, “Tetrahydroisoquinoline compounds as estrogen agonists/antagonists” (Pfizer Inc., priority 1999, dated 2003)
